17 molecules from ChEMBL document CHEMBL1126040 (J Med Chem, 1992) can be followed below.

In assay [1] the target is Sodium-dependent dopamine transporter (Rattus norvegicus, UniProt P23977). Briefly: Inhibition of […] binding to the dopamine transporter in rat striatal membranes. The format is cell membranes, Membrane.
Assay [2] concerns the target Sodium-dependent dopamine transporter (Rattus norvegicus) (UniProt P23977). Kind of assay: In vitro ability to inhibit the [3H]WIN-35428 binding to cocaine binding site on dopamine transporter in rat striatal membranes irreversibly after no wash. The settings on record: Striatum; Membrane. The arrangement: concentration or dose not given beside the values. The class given is cell membranes.

For assay [3] the target is unchanged. Kind of assay: In vitro ability to inhibit the [3H]WIN-35428 binding to cocaine binding site on dopamine transporter in rat striatal membranes irreversibly after one wash. The class given is cell membranes. Set-up: concentration or dose not given beside the values. The settings on record: Striatum; Membrane.
Assay [4] shares this target. Briefly: In vitro ability to inhibit the [3H]WIN-35428 binding to cocaine binding site on dopamine transporter in rat striatal membranes irreversibly after three washes. The arrangement: concentration or dose not given beside the values. The settings on record: Striatum; Membrane. The format is cell membranes.
Assay [5] shares this target. Briefly: In vitro ability to inhibit the [3H]WIN-35428 binding to cocaine binding site on dopamine transporter in rat striatal membranes irreversibly after two washes. The class given is cell membranes. The arrangement: concentration or dose not given beside the values. Conditions: Striatum; Membrane.

Chain of Sodium-dependent dopamine transporter (P23977 whole entry): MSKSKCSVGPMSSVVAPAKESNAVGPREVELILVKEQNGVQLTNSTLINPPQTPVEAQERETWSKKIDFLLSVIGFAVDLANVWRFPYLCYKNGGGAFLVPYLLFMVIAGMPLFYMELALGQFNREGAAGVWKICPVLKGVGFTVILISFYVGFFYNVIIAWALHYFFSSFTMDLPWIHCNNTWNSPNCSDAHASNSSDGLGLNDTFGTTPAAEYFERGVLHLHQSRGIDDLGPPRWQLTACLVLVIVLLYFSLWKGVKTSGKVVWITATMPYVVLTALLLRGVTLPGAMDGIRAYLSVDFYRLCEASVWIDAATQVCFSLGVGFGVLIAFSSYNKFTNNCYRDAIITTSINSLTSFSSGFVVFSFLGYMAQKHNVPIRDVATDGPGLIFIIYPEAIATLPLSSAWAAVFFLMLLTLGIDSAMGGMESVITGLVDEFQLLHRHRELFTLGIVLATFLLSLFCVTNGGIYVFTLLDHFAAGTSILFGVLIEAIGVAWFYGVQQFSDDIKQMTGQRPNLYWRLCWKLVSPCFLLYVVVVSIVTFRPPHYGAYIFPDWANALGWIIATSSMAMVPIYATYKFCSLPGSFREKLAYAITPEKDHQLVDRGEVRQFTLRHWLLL
Chain of Sodium-dependent dopamine transporter (Rattus norvegicus) (P23977 whole entry): as above

Regarding `CN1C2CC[C@@H]1C[C@H](c1ccc(Cl)cc1)[C@@H]2C(=O)OCCc1ccc(N=[N+]=[N-])c(I)c1`, in assay [1], the IC50 amounted to 14.5 nM. Moreover, the Control worked out at 14% in assay [2], 14% in assay [3], 16% in assay [4] and 22% in assay [5].

The molecule `CN1C2CC[C@@H]1C[C@H](OC(=O)c1ccccc1)[C@@H]2C(=O)OCCc1ccc([N+](=O)[O-])cc1` gave an IC50 in assay [1] of 601 nM.

`CN1C2CC[C@@H]1C[C@H](OC(=O)c1ccccc1)[C@@H]2C(=O)OCCc1ccc(NC(=O)CBr)cc1` returned an IC50 in assay [1] of 61 nM. Moreover, the Control in assay [2] worked out at 22%; in assay [3], 34%; in assay [4] it was 38%; in assay [5], 33%.

In the case of `CN1C2CC[C@@H]1C[C@H](OC(=O)c1ccccc1)[C@@H]2C(=O)OCCCc1ccccc1`, in assay [1], the IC50 was 139 nM.

On to `CN1C2CC[C@@H]1C[C@H](c1ccc(Cl)cc1)[C@@H]2C(=O)OCCc1ccc(NC(=O)CBr)cc1`, for which the IC50 in assay [1] was 1.73 nM. For the same molecule, the Control in assay [2] was 14%; in assay [3], 23%; in assay [4], 34%; in assay [5], 26%.

On to `COC(=O)[C@H]1[C@@H](OC(=O)c2ccccc2)C[C@@H]2CC[C@H]1N2C`, for which the Control in assay [2] came out at 43%; in assay [3], 85%; in assay [5], 79%.

In the case of `CN1C2CC[C@@H]1C[C@H](OC(=O)c1ccccc1)[C@@H]2C(=O)OCCc1ccc(N=[N+]=[N-])cc1`, in assay [1], the 50% inhibitory concentration (IC50) worked out at 227 nM. In addition, the Control in assay [2] is 23%; in assay [3], 30%; in assay [4], 49%; in assay [5] it was 45%.

The molecule `CN1C2CC[C@@H]1C[C@H](c1ccc(Cl)cc1)[C@@H]2C(=O)OCCc1ccc(N=C=S)cc1` displayed a half-inhibitory concentration (IC50) in assay [1] of 5.3 nM. Also, the Control was found to be 24% in assay [2], 29% in assay [3], 30% in assay [4] and 26% in assay [5].

For the molecule `COC(=O)[C@@H]1C2CC[C@H](C[C@@H]1c1ccc(N)c(I)c1)N2C`, the IC50 in assay [1] was 1.35 nM.

Regarding `CN1C2CC[C@@H]1C[C@H](OC(=O)c1ccccc1)[C@@H]2C(=O)OCCc1ccc(N=C=S)cc1`, the IC50 in assay [1] came out at 196 nM.

In turn, `COC(=O)[C@@H]1C2CC[C@H](C[C@@H]1c1ccc(N=[N+]=[N-])c(I)c1)N2C` had an IC50 in assay [1] of 4.93 nM. In addition, the Control in assay [2] came out at 0%; in assay [3], 2%; in assay [4], 5%; in assay [5] it was 5%.

As to `CN1C2CC[C@@H]1C[C@H](c1ccc(Cl)cc1)[C@@H]2C(=O)OCCc1ccc(N)cc1`, in assay [1], the IC50 amounted to 2.16 nM.

`CN1C2CC[C@@H]1C[C@H](c1ccc(Cl)cc1)[C@@H]2C(=O)OCCc1ccc(N)c(I)c1` returned an IC50 in assay [1] of 2.51 nM.

`CN1C2CC[C@@H]1C[C@H](c1ccc(Cl)cc1)[C@@H]2C(=O)OCCc1ccc(N=[N+]=[N-])cc1` showed an IC50 in assay [1] of 6.17 nM. The Control stood at 21% in assay [2], 19% in assay [3], 26% in assay [4] and 24% in assay [5].

`CN1C2CC[C@@H]1C[C@H](c1ccc(Cl)cc1)[C@@H]2C(=O)OCCc1ccc([N+](=O)[O-])cc1` had an IC50 in assay [1] of 2.71 nM.

As to `CN1C2CC[C@@H]1C[C@H](OC(=O)c1ccccc1)[C@@H]2C(=O)OCCc1ccccc1`, the IC50 in assay [1] came to 248 nM.

Molecule `CN1C2CC[C@@H]1C[C@H](OC(=O)c1ccccc1)[C@@H]2C(=O)OCCc1ccc(N)cc1` displayed an IC50 in assay [1] of 72 nM.
